Assay results: PubChem BioAssay (NCI)
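Following 48 hours of exposure in 96-well plates, responses at five concentrations were used to interpolate endpoints linearly. At the GI50, growth is halved. TGI denotes the concentration required for complete inhibition of growth.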

What was measured:
Assay in all cases: NCI anticancer screen, dose series, 48 h
TK-10 renal = system: TK-10 renal
NCI-H522 lung = system: NCI-H522 lung
HCC-2998 colon = system: HCC-2998 colon
HCT-15 colon = system: HCT-15 colon
SK-MEL-5 melanoma = system: SK-MEL-5 melanoma
SF-268 CNS = system: SF-268 CNS
SK-MEL-2 melanoma = system: SK-MEL-2 melanoma
UACC-257 melanoma = system: UACC-257 melanoma
SNB-19 CNS = system: SNB-19 CNS
SK-OV-3 ovarian = system: SK-OV-3 ovarian
BT-549 breast = system: BT-549 breast
HCT-116 colon = system: HCT-116 colon
UACC-62 melanoma = system: UACC-62 melanoma
PC-3 prostate = system: PC-3 prostate
SW-620 colon = system: SW-620 colon
MOLT-4 leukemia = system: MOLT-4 leukemia
U251 CNS = system: U251 CNS
HOP-92 NSCLC = system: HOP-92 NSCLC
A498 renal = system: A498 renal
UO-31 renal = system: UO-31 renal
IGROV1 ovarian = system: IGROV1 ovarian
EKVX NSCLC = system: EKVX NSCLC
SK-MEL-28 melanoma = system: SK-MEL-28 melanoma
MDA-MB-435 = system: MDA-MB-435
T-47D breast = system: T-47D breast
A549 NSCLC = system: A549 NSCLC
ACHN renal = system: ACHN renal
MALME-3M melanoma = system: MALME-3M melanoma
SR leukemia = system: SR leukemia

Nc1n[nH]c2cc(F)c([C@@H]3Nc4c(F)cc5[nH]ncc5c4[C@H]4C5CCC(C5)[C@@H]34)cc12 (some centres not stated) showed a TGI (TK-10 renal) of 27200 nM, a GI50 (NCI-H522 lung) of 93.2 nM and a TGI (NCI-H522 lung) of 2220 nM. For the same molecule, the GI50 (HCC-2998 colon) was 118 nM, the TGI (HCC-2998 colon) was 4500 nM and the GI50 (HCT-15 colon) was 111 nM. The TGI (HCT-15 colon) was 3690 nM, the GI50 (SK-MEL-5 melanoma) was 114 nM and the TGI (SK-MEL-5 melanoma) was 538 nM. It also gave a GI50 (SF-268 CNS) of 306 nM, a TGI (SF-268 CNS) of 4490 nM and a GI50 (SK-MEL-2 melanoma) of 817 nM. The TGI (SK-MEL-2 melanoma) was 9370 nM, the GI50 (UACC-257 melanoma) was 5160 nM and the TGI (UACC-257 melanoma) was 23300 nM. For the same molecule, the GI50 (SNB-19 CNS) was 134 nM, the TGI (SNB-19 CNS) was 14900 nM and the GI50 (SK-OV-3 ovarian) was 275 nM. The TGI (SK-OV-3 ovarian) was 20700 nM, the GI50 (BT-549 breast) was 103 nM and the TGI (BT-549 breast) was 1370 nM. The GI50 (HCT-116 colon) was 118 nM, the TGI (HCT-116 colon) was 1560 nM and the GI50 (UACC-62 melanoma) was 162 nM. The TGI (UACC-62 melanoma) was 6770 nM, the GI50 (PC-3 prostate) was 149 nM and the TGI (PC-3 prostate) was 8040 nM. It also gave a GI50 (SW-620 colon) of 141 nM, a TGI (SW-620 colon) of 6720 nM and a GI50 (MOLT-4 leukemia) of 145 nM. For the same molecule, the TGI (MOLT-4 leukemia) was 14100 nM, the GI50 (U251 CNS) was 127 nM and the TGI (U251 CNS) was 5700 nM. The GI50 (HOP-92 NSCLC) was 360 nM, the TGI (HOP-92 NSCLC) was 4100 nM and the GI50 (A498 renal) was 63 nM. It also gave a TGI (A498 renal) of 212 nM, a GI50 (UO-31 renal) of 209 nM and a TGI (UO-31 renal) of 10800 nM. It also gave a GI50 (IGROV1 ovarian) of 130 nM, a TGI (IGROV1 ovarian) of 5040 nM and a GI50 (EKVX NSCLC) of 167 nM. For the same molecule, the TGI (EKVX NSCLC) was 23400 nM, the GI50 (SK-MEL-28 melanoma) was 3750 nM and the TGI (SK-MEL-28 melanoma) was 13400 nM. It also gave a GI50 (MDA-MB-435) of 72.7 nM, a TGI (MDA-MB-435) of 195 nM and a GI50 (T-47D breast) of 5890 nM. For the same molecule, the TGI (T-47D breast) was 26600 nM, the GI50 (A549 NSCLC) was 134 nM and the TGI (A549 NSCLC) was 13900 nM. It also gave a GI50 (ACHN renal) of 188 nM, a TGI (ACHN renal) of 11100 nM and a GI50 (MALME-3M melanoma) of 948 nM. It also gave a TGI (MALME-3M melanoma) of 14300 nM, a GI50 (SR leukemia) of 115 nM and a TGI (SR leukemia) of 11100 nM.
